Laboratory results from patent US20110028345A1, “METHODS TO CHARACTERIZE CELL REPROGRAMMING AND USES THEREOF” (CORNING INCORPORATED, priority 2009, published 2011).
Ends that are not written are not given here.

Legend:
[1] = system: undifferentiated and differentiated ReN cells; experiment: DMR marker panel profiling, differentiated versus undifferentiated ReN cells; format: cell-based, human; conditions: markers at 10 μM (dopamine and glucagons like peptide 128 μM); FIG. 9-11
Protocol: The confluency for all cells at the time of assays was ˜95% to 100%.
(§1) For biosensor cellular assays, compound solutions were made by diluting the stored concentrated solutions with the HBSS (1× Hanks balanced salt solution, plus 20 mM Hepes, pH 7.1), and transferred into a 384 well polypropylene compound storage plate to prepare a compound source plate. […] Afterwards, a 2 to 10 min continuous recording was carried out to establish a baseline, and to ensure that the cells reached a steady state.

[2] = system: differentiated ReNcell cells (endogenous dopamine receptors); experiment: Epic RWG biosensor DMR assay on the neuronal cell system differentiated from ReNcell VM; format: cell-based, human; conditions: for DMR signal upon stimulation: differentiated ReNcell cells, PD128907 and A68930 16 micromolar, dopamine 128 micromolar (FIG. 7A-C); for receptor to which the DMR signal is attributed: same doses as FIG. 7A-C
Protocol: For cell assay on Epic, undifferentiated cells were typically seeded using ˜3×10^3 cells per well in 50 μl of the corresponding culture medium in the biosensor microplate freshly coated with laminin, and were cultured at 37° C. under air/5% CO2. […] The medium was replaced with fresh ReNcell NSC Maintenance Medium every 2-3 days for 10 days. The confluency for all cells at the time of assays was ˜95% to 100%.
as §1

A549 cell = experiment: Modulation of marker-induced biosensor (DMR) responses in A549 cell; format: cell-based
Text: (§2) A “modulation profile” or like terms is the comparison between a secondary profile of the marker in the presence of a molecule and the primary profile of the marker in the absence of any molecule. The comparison can be by, for example, subtracting the primary profile from secondary profile or subtracting the secondary profile from the primary profile or normalizing the secondary profile against the primary profile.
(§3) A “molecule modulation index” or like terms is an index to display the ability of the molecule to modulate the biosensor output signals of the panels of markers acting on the panel of cells. The modulation index is generated by normalizing a specific biosensor output signal parameter of a response of a cell upon stimulation with a marker in the presence of a molecule against that in the absence of any molecule.
(§4) Alternatively, different scores can be given for a type of modulation but with different scales. For example, a positive modulation of 10%, 20%, 30%, 40%, 50%, 60%, 100%, 200%, etc, can be given a score of +1, +2, +3, +4, +5, +6, +10, +20, correspondingly. Conversely, for negative modulation, similar but in opposite score can be given. […] Thus, the score of HA1077 modulation index in coordination can be assigned as (0, 0.5, −0.6, 0, −2.3, 0.6, 0, −6.8, 0.4, −3.6, −0.5, −1.6). Once a molecular index is generated, the molecular index can be compared with a library of known modulators to determine the mode(s) of action of the molecule of interest. […] Beside its indicative power of a DMR index for pharmacology of a molecule, a molecule DMR index can also be used to distinguish the cellular background of different types of cells.

quiescent A431 cells = experiment: Modulation of marker-induced biosensor (DMR) responses in quiescent A431 cells; format: cell-based
Text: as §2, §3, §4

ReNcell progenitor cells = conditions: 128 micromolar
Protocol: Afterwards, a 2 to 10 min continuous recording was carried out to establish a baseline, and to ensure that the cells reached a steady state. Cellular responses were then triggered by transferring 10 μl of the compound solutions into the cell assay plate using the on-board liquid handler.
Epic® wavelength interrogation system (Corning Inc., Corning, N.Y.) was used for whole cell sensing. This system consists of a temperature-control unit, an optical detection unit, and an on-board liquid handling unit with robotics. The detection unit is centered on integrated fiber optics, and enables kinetic measures of cellular responses with a time interval of ˜15 sec. The compound solutions were introduced by using the on-board liquid handling unit (i.e., pippetting).
For biosensor cellular assays, compound solutions were made by diluting the stored concentrated solutions with the HBSS (1× Hanks balanced salt solution, plus 20 mM Hepes, pH 7.1), and transferred into a 384 well polypropylene compound storage plate to prepare a compound source plate. Two compound source plates were made separately when a two-step assay was performed. […] Both the cell assay plate and the compound source plate(s) were then incubated in the hotel of the reader system. After incubation the baseline wavelengths of all biosensors in the cell assay microplate were recorded and normalized to zero. […]

NCCc1ccc(O)cc1 [tyramine]
specificity of the marker DMR signal for the differentiation state [1]: specific to the undifferentiated cells

CCCN1CCO[C@@H]2c3cc(O)ccc3OC[C@H]21 [PD128907]
DMR signal upon stimulation [2]: small but reproducible DMR signal
receptor to which the DMR signal is attributed ([2]; differentiated cells): activated another endogenous dopamine receptor (possibly D2 receptor)

substance P (RPKPQQFFGLM; ends and bridges not checked; UniProt P20366 58-68, looked up) [NKA receptor agonist]
specificity of the marker DMR signal for the differentiation state [1]: specific to the undifferentiated cells

dynorphin A (YGGFLRRIRPKLKWDNQ; Dynorphin A(1-17); UniProt P01213 207-223, looked up) [opioid receptor agonist]
specificity of the marker DMR signal for the differentiation state [1]: specific to the differentiated ReN cells

Nc1ncnc2c1ncn2[C@@H]1O[C@H](CO)[C@@H](O)[C@H]1O [adenosine]
specificity of the marker DMR signal for the differentiation state [1]: specific to the differentiated ReN cells

NCCCC(=O)O [GABA]
specificity of the marker DMR signal for the differentiation state [1]: non-specific to both the undifferentiated and differentiated ReN cells

O=c1ccn([C@@H]2O[C@H](COP(=O)(O)OP(=O)(O)O)[C@@H](O)[C@H]2O)c(=O)[nH]1 [UDP]
specificity of the marker DMR signal for the differentiation state [1]: specific to the differentiated ReN cells

platelet growth factor
specificity of the marker DMR signal for the differentiation state [1]: non-specific to both the undifferentiated and differentiated ReN cells

glucagons like peptide
specificity of the marker DMR signal for the differentiation state [1]: specific to the undifferentiated cells

Neuropeptide Y
specificity of the marker DMR signal for the differentiation state [1]: specific to the differentiated ReN cells

vasoactive intestinal peptide (HSDAVFTDNYTRLRKQMAVKKYLNSILN; ends and bridges not checked; UniProt P01282 125-152, looked up) [VIP receptor agonist]
specificity of the marker DMR signal for the differentiation state [1]: specific to the differentiated ReN cells

O=c1ccn([C@@H]2O[C@H](COP(=O)(O)OP(=O)(O)OP(=O)(O)O)[C@@H](O)[C@H]2O)c(=O)[nH]1 [UTP]
specificity of the marker DMR signal for the differentiation state [1]: specific to the undifferentiated cells

Nc1ncnc2c1ncn2[C@@H]1O[C@H](COP(=O)(O)OP(=O)(O)OP(=O)(O)O)[C@@H](O)[C@H]1O [ATP]
specificity of the marker DMR signal for the differentiation state [1]: specific to the differentiated ReN cells

lysophosphatidic acid
specificity of the marker DMR signal for the differentiation state [1]: specific to the undifferentiated cells

N#CC(C#N)=C(N)/C(C#N)=C/c1cc(O)c(O)c(O)c1 [tyrphostin 51]
modulation of the biosensor response induced by PMA (A549 cell; marker PMA): −6%
modulation of the biosensor response induced by SLIGKV-amide (A549 cell; marker SLIGKV-amide): 0%
modulation of the biosensor response induced by forskolin (A549 cell; marker forskolin): −23%
modulation of the histamine early response (A549 cell; marker histamine, early response): +6%
modulation of the histamine late response (A549 cell; marker histamine, late response): 0%
modulation of the biosensor response induced by pinacidil (A549 cell; marker pinacidil): 0%
modulation of the biosensor response induced by poly (I:C) (A549 cell; marker poly (I:C)): +5%
mode of action concluded from the biosensor index (quiescent A431 cells; EGFR inhibitor (EGF DMR in A431) and PDE4 inhibitor (epinephrine, histamine in A431; forskolin in A549)): displays polypharmacology
modulation of the EGF N-DMR (quiescent A431 cells; quiescent A431 cells, marker EGF, N-DMR): −5%
modulation of the EGF P-DMR (quiescent A431 cells; quiescent A431 cells, marker EGF, P-DMR): −36%
modulation of the biosensor response induced by epinephrine (quiescent A431 cells; quiescent A431 cells, marker epinephrine): −68%
modulation of the biosensor response induced by histamine (quiescent A431 cells; quiescent A431 cells, marker histamine): −16%
modulation of the biosensor response induced by nicotinic acid (quiescent A431 cells; quiescent A431 cells, marker nicotinic acid): +4%

angiotensin II (DRVYIHPF; Angiotensin-2; UniProt P01019 25-32, looked up) [ATII receptor angiotensin II]
specificity of the marker DMR signal for the differentiation state [1]: specific to the undifferentiated cells

Nc1ncnc2c1ncn2[C@@H]1O[C@H](COP(=O)(O)OP(=O)(O)O)[C@@H](O)[C@H]1O [ADP]
specificity of the marker DMR signal for the differentiation state [1]: non-specific to both the undifferentiated and differentiated ReN cells

NC[C@@H]1O[C@H](c2ccccc2)Cc2c1ccc(O)c2O [A68930]
DMR signal upon stimulation [2]: small but reproducible DMR signal
receptor to which the DMR signal is attributed ([2]; differentiated cells): triggered a DMR signal specifically to the endogenous D1 receptor

alpha-melanocyte-stimulating hormone (SYSMEHFRWGKPV; ends and bridges not checked; UniProt P01189 138-150, looked up) [MCH receptor agonist]
specificity of the marker DMR signal for the differentiation state [1]: non-specific to both the undifferentiated and differentiated ReN cells

endothelin 1 (CSCSSLMDKECVYFCHLDIIW; ends and bridges not checked; cysteine pairing not given here; UniProt P05305 53-73, looked up) [endothelin receptor agonist]
specificity of the marker DMR signal for the differentiation state [1]: specific to the differentiated ReN cells

neuropeptide B-23 (WYKPAAGHSSYSVGRAAGLLSGLR; ends and bridges not checked; UniProt Q8NG41 25-48, looked up) [GPR7 and 8 agonist]
specificity of the marker DMR signal for the differentiation state [1]: specific to the differentiated ReN cells

SFLLR-amide
specificity of the marker DMR signal for the differentiation state [1]: specific to the differentiated ReN cells

apelin
specificity of the marker DMR signal for the differentiation state [1]: non-specific to both the undifferentiated and differentiated ReN cells

orexin A (QPLPDCCRQKTCSCRLYELLHGAGNHAAGILTL; ends and bridges not checked; cysteine pairing not given here; UniProt O43612 34-66, looked up) [orexin receptor agonist]
specificity of the marker DMR signal for the differentiation state [1]: specific to the differentiated ReN cells

NCCc1ccc(O)c(O)c1 [dopamine]
DMR signal 10 days after differentiation and maturation ([2]; 128 micromolar, 10 days after differentiation (FIG. 8D)): distinct DMR signal which contains additional contributions from endogenous D1 receptors
dose dependence of the DMR signal ([2]; amplitudes 50 min after stimulation as a function of concentration (FIG. 7D)): biphasic dose-dependent DMR signal
DMR signal upon stimulation [2]: small but reproducible DMR signal
DMR signal at high doses ([2]; differentiated cells, high doses): close to the simple sum of both A68390 and PD129807 DMR signals
DMR signal at low doses ([2]; differentiated cells, low doses (<4000 nM)): DMR signal similar to that induced by A68390
receptor to which the DMR signal is attributed ([2]; differentiated cells): can activate both D1 and D2 receptors
DMR signal 3 hr after attachment (ReNcell progenitor cells; 3 hr after attachment on laminin coated biosensor surface (FIG. 8B)): small but reproduced DMR signal
DMR signal after 4 days undifferentiated culture (ReNcell progenitor cells; 4 days in growth factor rich medium (FIG. 8C)): distinct DMR signal (FIG. 8C), which was confirmed to be due to the activation of the endogenous D2 receptor
specificity of the marker DMR signal for the differentiation state [1]: non-specific to both the undifferentiated and differentiated ReN cells

NCCCNCCCCNCCCN [spermine]
specificity of the marker DMR signal for the differentiation state [1]: specific to the differentiated ReN cells
